# Measured values published in PubChem BioAssay AID463206 (Broad Institute, 2010).
# Activity calls are given as the source filed them.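 How the source made its calls: active means caspase luminescence falls with dose and the half-maximal concentration AC50 from the fitted curve is at or below a set limit; inconclusive means flat fit at 30 to 70% signal loss, or invalid fit; inactive means AC50 above the limit, or signal rises instead.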
# Test system: INS-1E cytokine-induced caspase-3/7, Caspase-Glo luminescence, 48 h
# Experiment: suppression of cytokine-driven beta-cell apoptosis – INS-1E rat cells, luminescence, orthogonal assay for beta-cell apoptosis protection project, dose response (AID 463206)
row,SMILES,AC50
1,Cc1ccccc1NC(=O)/C=C/c1ccc([N+](=O)[O-])s1,> 26 µM (inactive)
2,CCCC[C@@H](CN[C@H](C)CNC)NCC1CCC(C(C)(C)C)CC1 (stereo not given in full),25.6 µM
3,O=C(NC1=C(Nc2ccc(F)cc2)C(=O)c2ccccc2C1=O)c1ccc(Cl)cc1,> 26 µM (inactive)
4,CCCCSc1nc2sc3c(c2c(=O)n1-c1ccc(C)cc1)CCN(C)C3,> 26 µM (inactive)
5,O=C(N/N=C\c1c(O)ccc2ccccc12)c1ccc(S(=O)(=O)N2CCCCC2)cc1,> 26 µM (inactive)
6,CC1=C(CC(=O)c2ccc(Cl)cc2)C(=O)c2ccccc2C1=O,> 26 µM (inactive)
7,Cc1[nH]nc2nc(SCC(=O)NCCC3=CCCCC3)n(-c3ccc(Br)cc3)c(=N)c12,> 26 µM (inactive)
8,Cc1cc(C(C)(C)C)cc(C)c1C[n+]1ccc2ccccc2c1,> 26 µM (inactive)
9,COc1ccccc1NCC(=O)N1CCN(S(=O)(=O)c2ccccc2)CC1,> 26 µM (inactive)
10,CN(C)S(=O)(=O)c1cccc(N=C2NN=C(c3ccccc3)CS2)c1,> 26 µM (inactive)
11,COc1ccccc1/C=C1\SC(=O)N(CCC(=O)NCCCn2ccnc2)C1=O,> 26 µM (inactive)
12,CC(=O)c1c(C)[nH]c(C(=O)CN2CCN(S(=O)(=O)c3ccccc3)CC2)c1C,> 26 µM (inactive)
13,CCCCOc1ccc(-c2cc(C(=O)NNC(=S)NCC)c3ccccc3n2)cc1,> 26 µM (inactive)
14,c1ccc(CNc2nc(-c3ccccn3)nc3ccccc23)cc1,> 26 µM (inactive)
15,Cc1ccc(-c2[nH]ncc2/C=N/n2c(COc3ccccc3C)nc3ccccc3c2=O)cc1,> 26 µM (inactive)
16,CNC(=O)c1sc(N2N=C3/C(=C/c4ccccc4)CCCC3C2c2ccccc2)nc1C (stereo not given),> 26 µM (inactive)
17,Cc1nn(-c2nc3ccccc3[nH]2)c(=O)c2ccccc12,> 26 µM (inactive)
18,O=C(CCCc1nc(-c2ccc(Cl)cc2)no1)NC1CCCC1,> 12 µM (inactive)

row,SMILES,AC50
1,COC(=O)C1=C(C)N(Cc2ccccc2)C(=NCc2cccc(Cl)c2)N[C@H]1c1cccc(F)c1,> 26 µM (inactive)
2,CCOC(=O)c1cnc(-n2nc(C)cc2C)nc1NCc1ccccc1,> 26 µM (inactive)
3,O=C(N/N=C/c1ccc(O)cc1O)c1ccc(CN2C(=O)c3cccc4cccc2c34)cc1,> 26 µM (inactive)
4,Cn1c2c(c(=O)n(C)c1=O)C(C(F)(F)F)(C(F)(F)F)N=C(c1ccc(Cl)cc1)N2,> 26 µM (inactive)
5,CCCCn1c(NS(=O)(=O)c2ccccc2)c(S(=O)(=O)c2ccc(C)cc2)c2nc3ccccc3nc21,> 12 µM (inactive)
6,CCN(CC)S(=O)(=O)c1ccc(NC(=O)Nc2cccc(C(F)(F)F)c2)cc1,> 26 µM (inactive)
7,COc1ccc(Cc2nnc(N/N=C/c3ccc(O)cc3)[nH]c2=O)cc1OC,> 26 µM (inactive)
8,CCCOC(=O)c1ccc(-[n+]2c(-c3ccccc3)cc(-c3ccccc3)cc2-c2ccccc2)cc1,> 26 µM (inactive)
9,CCc1ccc2c(c1)C1(C(=O)N2)N2CCCC2C(C(=O)c2ccc3ccccc3c2)C12C(=O)Nc1ccccc12 (stereo not given),> 26 µM (inactive)
10,CCCC(=O)NC(c1ccc(OC)c(OC)c1)c1cc(Cl)c2cccnc2c1O (stereo not given),> 26 µM (inactive)
11,CCOc1ccc(OCC)c(S(=O)(=O)NCCOC23CC4CC(CC(C4)C2)C3)c1,15.9 µM
12,O=C(NNC(=O)C12CC3CC(CC(C3)C1)C2)c1ccccn1,> 26 µM (inactive)
13,C#CCOCCOCCOCCNc1nc(N2CCN(C(=O)CCCCCCCCCCNC(=O)[C@H](CCCCN)n3cc(C)nn3)CC2)nc(N2CCN(C(=O)CCCCCCCCCCNC(=O)[C@@H]([C@H](C)CC)n3cc(CCCCCN)nn3)CC2)n1,> 26 µM (inactive)
14,Cc1ccc(Cl)cc1NC1=C/C(=N\S(=O)(=O)c2cccs2)c2ccccc2C1=O,> 26 µM (inactive)
15,Cc1ccc(-c2nc(C(Cl)Cl)c3ccccc3n2)cc1,2.66 µM
16,Cc1ccc(NC(=O)C2CCN(S(=O)(=O)c3ccc4c(c3)NC(=O)C(C)S4)CC2)cc1Cl (stereo not given),> 26 µM (inactive)
17,CCC(O)C1CCN(C(=O)c2cc(COc3ccc4ncccc4c3)on2)CC1 (stereo not given),> 26 µM (inactive)
